Source: patent US20250270180A1, “MEK INHIBITORS AND THERAPEUTIC USES THEREOF” (Immuneering Corporation, priority 2020, published 2025)
Where “and” joins values, the source holds several entries; their conditions need not be identical. Identical values can stand only once.

Columns and labels:
A549 (KRAS-G12S) pERK = assay: Cell-based pERK dose response study, A549
Description: Materials and Methods: A549 or A375 cells were seeded in 6-well plates at an appropriate seeding density on day 0. On day 2 or 3, after checking the health and confluency of cells, the media was aspirated and replaced with 1 mL media containing a predetermined concentration of compound and incubated for 2 hours. After 2 hours, the media was aspirated, and the cells washed 2 times with cold PBS. Cells were lysed on ice, with 50 uL 1×CST lysis buffer+1 mM PMSF for 5 minutes. After 5 minutes, cells were removed using a scraper and transferred to cold 1.5 mL tubes, and centrifuged for 10 min, 4° C., 14,000×g. Supernatant was gently removed and snap frozen in liquid nitrogen. Protein concentration of the lysate was determined using Bradford Reagent (analyzed using SpectraMax M2E) and diluted to 1 mg/mL or pERK or 1.5 mg/mL for pMEK analysis. […] All dilutions were in Milk-free antibody diluent.

A549 pMEK:tMEK (CRAF) = assay: CRAF-bypass pMEK:tMEK, A549; assay type: cell-based
Description: Materials and Methods: A549 or A375 cells were seeded in 6-well plates at an appropriate seeding density on day 0. On day 2 or 3, after checking the health and confluency of cells, the media was aspirated and replaced with 1 mL media containing a predetermined concentration of compound and incubated for 2 hours. After 2 hours, the media was aspirated, and the cells washed 2 times with cold PBS. Cells were lysed on ice, with 50 uL 1×CST lysis buffer+1 mM PMSF for 5 minutes. After 5 minutes, cells were removed using a scraper and transferred to cold 1.5 mL tubes, and centrifuged for 10 min, 4° C., 14,000×g. Supernatant was gently removed and snap frozen in liquid nitrogen. Protein concentration of the lysate was determined using Bradford Reagent (analyzed using SpectraMax M2E) and diluted to 1 mg/mL or pERK or 1.5 mg/mL for pMEK analysis. Cell lysates were then analyzed for phosphor-ERK/total-ERK levels on a Jess system (ProteinSimple; Cat #JS3346) using the following antibodies: tERK1/2 (CST 4696; 1:50) and pERK1/2 (CST 4377; 1:50). […]
A549 or […] cells were treated in duplicate for two hours with compounds at varying concentrations. […] After storage, the lysate was quantified with the Bradford assay. Before the lysates were prepared to run on the Jess, the lysates were diluted to 1 mg/mL for pERK analysis and 1.5 mg/mL pMEK analysis using quantitative Western blotting. […]

[1] = Human liver microsome stability (t1/2, Clint); assay type: in vitro ADME; settings: microsomes, pH 7.4, 0.5 mg/ml microsomal protein
[2] = system: A549 (KRAS G12S) pERK: total ERK; assay: Phospho-ERK screen in A549 (KRAS G12S); assay type: cell-based; settings: 10 μM for 2 hours
Description: Materials and Methods: A549 or A375 cells were seeded in 6-well plates at an appropriate seeding density on day 0. On day 2 or 3, after checking the health and confluency of cells, the media was aspirated and replaced with 1 mL media containing a predetermined concentration of compound and incubated for 2 hours. After 2 hours, the media was aspirated, and the cells washed 2 times with cold PBS. Cells were lysed on ice, with 50 uL 1×CST lysis buffer+1 mM PMSF for 5 minutes. After 5 minutes, cells were removed using a scraper and transferred to cold 1.5 mL tubes, and centrifuged for 10 min, 4° C., 14,000×g. Supernatant was gently removed and snap frozen in liquid nitrogen. Protein concentration of the lysate was determined using Bradford Reagent (analyzed using SpectraMax M2E) and diluted to 1 mg/mL or pERK or 1.5 mg/mL for pMEK analysis. Cell lysates were then analyzed for phosphor-ERK/total-ERK levels on a Jess system (ProteinSimple; Cat #JS3346) using the following antibodies: tERK1/2 (CST 4696; 1:50) and pERK1/2 (CST 4377; 1:50). For pMEK/tMEK, the following antibodies were used: tMEK1/2 (CST 4694; 1:15) and pMEK1/2 (CST 9154; 1:400). All dilutions were in Milk-free antibody diluent.
The results of a phospho-ERK Screen in A549 (KRAS G12S) study is described in Table 7, 7A, 7B, and 8 below.

[3] = Metabolite ID study, mouse hepatocytes; assay type: in vitro ADME; settings: 10 uM compound 9, T=60 min
Description: (§1) Animal Studies: Compound 9 was tested using six species hepatocytes in a metabolite ID study (T=60 min).
(§2) Cryopreserved hepatocytes from a selected species were thawed and incubated in duplicate with 10 uM compound 9 in Krebs-Henseleit buffer. […] Viability of hepatocytes was >70% after thawing.
(§3) (Eppendorf 5804R). […] The disappearance of the parent compound was determined, and the formation of metabolites was evaluated. Metabolites present at >1% of total compound related material (based on peak area) were identified by interpretation of the LC-MS/MS data.
(§4) MS settings were optimized for the flow rate. Full scan spectra were acquired in combination with data dependent MS2.
(§5) The spectra obtained from all samples were screened for the presence of m/z values that are absent in the blank incubations (incubations with hepatocytes without compound and with vehicle control, and incubations of compound in buffer without hepatocytes). T=60 min incubations were used as an initial screening. All possible metabolites observed were semi-quantified by MS response (peak area). MS2 spectra were interpreted to determine possible location of the metabolism reaction. The presence of metabolites identified was compared across the selected species.

[4] = Metabolite ID study, rat hepatocytes; assay type: in vitro ADME; settings: 10 uM compound 9, T=60 min
Description: as §1, §2, §3, §4, §5

[5] = Metabolite ID study, rabbit hepatocytes; assay type: in vitro ADME; settings: 10 uM compound 9, T=60 min
Description: as §1, §2, §3, §4, §5

[6] = Metabolite ID study, dog hepatocytes; assay type: in vitro ADME; settings: 10 uM compound 9, T=60 min
Description: as §1, §2, §3, §4, §5

[7] = Metabolite ID study, monkey hepatocytes; assay type: in vitro ADME; settings: 10 uM compound 9, T=60 min
Description: as §1, §2, §3, §4, §5

A549 pERK = assay: A549-pERK, 2 h (quantitative Western, Jess); assay type: cell-based; settings: Homo sapiens, A549, 2 h, phospho:total ratio normalized to DMSO control
In short: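 Cells treated in duplicate for 2 h with compound, lysed and protein-normalised (1 mg/mL pERK, 1.5 mg/mL pMEK). Quantitative capillary Western; phospho/total protein ratio normalised to DMSO.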

hERG Channel = hERG Channel (Homo sapiens, UniProt Q12809); assay: in vitro
Sequence of hERG Channel (Q12809 whole entry): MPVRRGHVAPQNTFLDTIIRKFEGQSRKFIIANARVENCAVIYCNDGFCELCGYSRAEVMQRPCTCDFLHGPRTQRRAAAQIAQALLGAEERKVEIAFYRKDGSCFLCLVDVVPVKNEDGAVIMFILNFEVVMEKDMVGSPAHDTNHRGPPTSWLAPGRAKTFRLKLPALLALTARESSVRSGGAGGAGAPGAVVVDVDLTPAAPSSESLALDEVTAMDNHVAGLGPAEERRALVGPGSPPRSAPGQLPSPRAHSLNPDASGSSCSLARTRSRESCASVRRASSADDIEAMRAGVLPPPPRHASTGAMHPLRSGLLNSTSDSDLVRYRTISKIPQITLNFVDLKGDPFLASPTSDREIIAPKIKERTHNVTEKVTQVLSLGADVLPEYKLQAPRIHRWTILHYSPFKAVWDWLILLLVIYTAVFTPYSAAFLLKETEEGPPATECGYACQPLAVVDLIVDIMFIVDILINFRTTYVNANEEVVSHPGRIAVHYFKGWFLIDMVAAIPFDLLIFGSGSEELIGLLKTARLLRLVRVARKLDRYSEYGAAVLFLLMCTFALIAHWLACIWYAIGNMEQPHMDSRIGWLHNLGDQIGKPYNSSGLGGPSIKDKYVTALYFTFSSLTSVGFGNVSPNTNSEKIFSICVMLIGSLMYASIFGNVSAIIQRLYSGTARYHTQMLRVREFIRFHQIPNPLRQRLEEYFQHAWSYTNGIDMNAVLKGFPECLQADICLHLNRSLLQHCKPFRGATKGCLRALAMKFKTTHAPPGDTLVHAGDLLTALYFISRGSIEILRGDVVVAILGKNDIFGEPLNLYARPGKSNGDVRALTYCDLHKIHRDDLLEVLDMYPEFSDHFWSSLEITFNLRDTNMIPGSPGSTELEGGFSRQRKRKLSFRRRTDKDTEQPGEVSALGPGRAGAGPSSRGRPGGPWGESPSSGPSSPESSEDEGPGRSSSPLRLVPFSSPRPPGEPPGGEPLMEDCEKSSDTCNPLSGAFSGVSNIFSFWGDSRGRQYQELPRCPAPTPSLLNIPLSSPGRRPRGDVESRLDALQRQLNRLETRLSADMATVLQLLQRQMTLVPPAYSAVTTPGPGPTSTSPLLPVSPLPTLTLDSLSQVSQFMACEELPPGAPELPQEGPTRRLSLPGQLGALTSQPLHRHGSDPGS

Q: What does the source list for `CNS(=O)(=O)Nc1cccc(Cc2c(CN(C)C)c3ccc(OC(=O)N(C)C)cc3oc2=O)c1F` [Compound 9]?
A: A549 pERK:tERK ratio [10 nM; 2 hr] (A549 (KRAS-G12S) pERK; 10 nM, 2 hr): 0.62; IC50 (A549 (KRAS-G12S) pERK; Homo sapiens, A549, 12-point dose, 2 hours): 0.0198 µM; CRAF A549 pMEK:tMEK [100 nM; 2 hr] (A549 pMEK:tMEK (CRAF)): 0.47; half-life at 1 uM [1]: 35 min; microsomal CLint at 1 uM [1]: 40 µL/min/mg; pERK: total ERK (% relative to vehicle) [2]: 0.60% and 1.81%; % of total compound related material based on peak area, Mouse [3]: 97%; % of total compound related material based on peak area, Rat [4]: 95%; % of total compound related material based on peak area, Rabbit [5]: 93%; % of total compound related material based on peak area, Dog [6]: 96%; % of total compound related material based on peak area, Monkey [7]: 95%; activity at 0.01 µM (A549 pERK; 10 nM): 63%; activity at 10 µM (A549 pERK; 10 uM): 1.21%; IC50 (hERG Channel): 26.2 µM
